Assay results published in US9890166B2, “Imidazopyrrolidine derivatives and their use in the treatment of disease” (NOVARTIS AG, priority 2013, dated 2018).

Tests used:
[1] = test system: K-562 cells; experiment: Cell growth inhibition assay (CellTiter-Glo), K-562; details: for GI50: Homo sapiens, K562, read-out: K-562 GI50; for K-562 TGI: K-562 cells, total growth inhibition, CellTiter-Glo;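 as to all read-outs here: cellular ATP measured by luminescence after 4 days of exposure, 3-fold dilution series from 10 µM, DMSO vehicle-treated cells define 100%, cell-free medium wells −100%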
[2] = target: BRD3 (His-Brd3(20-477)) (Homo sapiens (Human), UniProt Q15059); experiment: TR-FRET in-vitro binding assay for BRD3; details: single determination or n ≧ 2 independent determinations, read-out: Biochemical IC50 BRD3
Procedure, shortened: (§1)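 TR-FRET binding with His-tagged bromodomain constructs, 8-point compound dilutions from 10 mM DMSO stocks. Reactions incubated 35 min at 30° C in 13.55 μL, read on an EnVision multilabel reader.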

[3] = test system: THP-1 cells; experiment: Cell growth inhibition assay (CellTiter-Glo), THP-1; details: for GI50: Homo sapiens, THP-1, read-out: THP-1 GI50; for THP-1 TGI: THP-1 cells, total growth inhibition, CellTiter-Glo;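 as to all read-outs here: viability read as cellular ATP luminescence after 4 days, 3-fold dilution series from 10 µM, DMSO vehicle-treated cells taken as 100%, cell-free medium wells as −100%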
[4] = test system: MV-4-11 cells; experiment: Cell growth inhibition assay (CellTiter-Glo), MV-4-11; details: for GI50: Homo sapiens, MV4-11, read-out: MV-4-11 GI50; for MV-4-11 TGI: MV-4-11 cells, total growth inhibition, CellTiter-Glo;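 as to all read-outs here: cellular ATP luminescence after 4 days, 3-fold dilution series from 10 µM top dose, vehicle (0.1% DMSO) set to 100%, cell-free medium set to −100%, day 0 corrected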
[5] = target: CREBBP bromodomain (His-CREBBP(1081-1197)) (Homo sapiens (Human), UniProt Q92793); experiment: AlphaScreen in-vitro binding assay for CREBBP; details: single determination or n ≧ 2 independent determinations, read-out: Biochemical IC50 CREBBP
Procedure, shortened: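 Reactions at 30 °C for 35 min, then Ni-chelate acceptor and streptavidin donor beads in HEPES pH 7.5, NaCl, Tween20, BSA, 60 min at room temperature. Eight-point compound series; IC50 by non-linear regression of percent inhibition.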

[6] = target: BRD2 (His-Brd2(60-472)) (Homo sapiens (Human), UniProt P25440); experiment: TR-FRET in-vitro binding assay for BRD2; details: single determination or n ≧ 2 independent determinations, read-out: Biochemical IC50 BRD2
Procedure, shortened: as §1

[7] = target: BRD4 (His-Brd4(44-477)) (Homo sapiens (Human), UniProt O60885); experiment: TR-FRET in-vitro binding assay for BRD4; details: single determination or n ≧ 2 independent determinations, read-out: Biochemical IC50 BRD4
Procedure, shortened: as §1

Chain of BRD3 (His-Brd3(20-477)) (Q15059 20-477): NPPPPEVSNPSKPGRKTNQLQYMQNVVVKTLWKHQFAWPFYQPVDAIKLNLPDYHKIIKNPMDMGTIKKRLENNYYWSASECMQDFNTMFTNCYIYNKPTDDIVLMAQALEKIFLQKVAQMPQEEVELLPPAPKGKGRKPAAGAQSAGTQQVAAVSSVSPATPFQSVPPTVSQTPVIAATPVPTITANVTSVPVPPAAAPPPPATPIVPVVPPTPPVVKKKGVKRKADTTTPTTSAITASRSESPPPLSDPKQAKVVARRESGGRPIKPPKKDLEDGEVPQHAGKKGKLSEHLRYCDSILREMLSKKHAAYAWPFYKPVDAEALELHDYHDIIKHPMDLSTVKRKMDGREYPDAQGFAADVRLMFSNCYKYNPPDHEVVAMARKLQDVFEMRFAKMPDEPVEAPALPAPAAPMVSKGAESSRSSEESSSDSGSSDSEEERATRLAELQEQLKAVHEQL
Chain of CREBBP bromodomain (His-CREBBP(1081-1197)) (Q92793 1081-1197): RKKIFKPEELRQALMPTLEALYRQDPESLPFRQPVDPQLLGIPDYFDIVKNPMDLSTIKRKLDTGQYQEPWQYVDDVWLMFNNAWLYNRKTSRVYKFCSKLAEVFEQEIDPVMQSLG
Chain of BRD2 (His-Brd2(60-472)) (P25440 60-472): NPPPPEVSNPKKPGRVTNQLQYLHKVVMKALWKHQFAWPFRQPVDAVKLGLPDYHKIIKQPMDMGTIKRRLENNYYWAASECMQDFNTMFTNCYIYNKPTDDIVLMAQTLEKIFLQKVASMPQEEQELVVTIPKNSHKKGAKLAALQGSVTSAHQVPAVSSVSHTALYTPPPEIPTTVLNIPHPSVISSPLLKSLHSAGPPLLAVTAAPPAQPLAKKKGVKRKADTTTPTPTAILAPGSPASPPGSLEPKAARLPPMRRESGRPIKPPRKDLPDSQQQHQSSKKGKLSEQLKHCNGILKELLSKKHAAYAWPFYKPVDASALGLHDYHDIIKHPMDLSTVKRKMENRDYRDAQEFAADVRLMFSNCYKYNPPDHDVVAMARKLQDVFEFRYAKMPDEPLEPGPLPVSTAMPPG

## Cc1cc(N2C(=O)c3nc(C4CC4)n(C(C)C)c3C2c2ccc(Cl)cc2)cn2c(C(F)F)nnc12 (centres unmarked) [Example 145, 6-(4-chlorophenyl)-2-cyclopropyl-5-(3-(difluoromethyl)-8-methyl-[1,2,4]triazolo[4,3-a]pyridin-6-yl)-1-isopropyl-5,6-dihydropyrrolo[3,4-d]imidazol-4(1H)-one]
[1]
  GI50: 70.2 nM
  K-562 TGI: >10000 nM
[2]
  IC50: 29 nM
[3]
  GI50: 22.2 nM
  THP-1 TGI: 47.6 nM
[4]
  GI50: 14 nM
  MV-4-11 TGI: 26.95 nM
[5]
  IC50: > 37000 nM
[6]
  IC50: 54 nM
[7]
  IC50: 28 nM

## Cc1cc(N2C(=O)c3nc(C)n(C(C)C)c3[C@H]2c2ccc(Cl)cc2)cn2c(C(F)F)nnc12 [Example 146, (R)-6-(4-chlorophenyl)-5-(3-(difluoromethyl)-8-methyl-[1,2,4]triazolo[4,3-a]pyridin-6-yl)-1-isopropyl-2-methyl-5,6-dihydropyrrolo[3,4-d]imidazol-4(1H)-one]
[1]
  GI50: 46.9 nM
  K-562 TGI: >10000 nM
[2]
  IC50: 12 nM
[3]
  GI50: 11 nM
  THP-1 TGI: 29.75 nM
[4]
  GI50: 9.57 nM
  MV-4-11 TGI: 15.05 nM
[5]
  IC50: > 37000 nM
[6]
  IC50: 20 nM
[7]
  IC50: < 11 nM

## Cc1cc(N2C(=O)c3nc(C4=CCOCC4)n(C(C)C)c3C2c2ccc(Cl)cc2)cn2c(C(F)F)nnc12 (centres unmarked) [Example 147, 6-(4-chlorophenyl)-5-(3-(difluoromethyl)-8-methyl-[1,2,4]triazolo[4,3-a]pyridin-6-yl)-2-(3,6-dihydro-2H-pyran-4-yl)-1-isopropyl-5,6-dihydropyrrolo[3,4-d]imidazol-4(1H)-one]
[1]
  GI50: 52 nM
  K-562 TGI: >10000 nM
[2]
  IC50: 44 nM
[3]
  GI50: 11.8 nM
  THP-1 TGI: 33.55 nM
[4]
  GI50: 8.12 nM
  MV-4-11 TGI: 16.25 nM
[5]
  IC50: 34300 nM
[6]
  IC50: 60 nM
[7]
  IC50: 13 nM

## COc1ncccc1-c1nc2c(n1C(C)C)C(c1ccc(Cl)cc1)N(c1cc(C)c3nnc(C(F)F)n3n1)C2=O (centres unmarked) [Example 148, 6-(4-chlorophenyl)-5-(3-(difluoromethyl)-8-methyl-[1,2,4]triazolo[4,3-b]pyridazin-6-yl)-1-isopropyl-2-(2-methoxypyridin-3-yl)-5,6-dihydropyrrolo[3,4-d]imidazol-4(1H)-one]
[1]
  GI50: 69.5 nM
  K-562 TGI: >10000 nM
[2]
  IC50: 22 nM
[3]
  GI50: 9.99 nM
  THP-1 TGI: 24.95 nM
[4]
  GI50: 6.47 nM
  MV-4-11 TGI: 13.1 nM
[5]
  IC50: > 37000 nM
[6]
  IC50: 36 nM
[7]
  IC50: 23 nM

## COc1ccc(-c2nc3c(n2C(C)C)C(c2ccc(Cl)cc2)N(c2cc(C)c4nnc(C(F)F)n4n2)C3=O)cn1 (centres unmarked) [Example 149, 6-(4-chlorophenyl)-5-(3-(difluoromethyl)-8-methyl-[1,2,4]triazolo[4,3-b]pyridazin-6-yl)-1-isopropyl-2-(6-methoxypyridin-3-yl)-5,6-dihydropyrrolo[3,4-d]imidazol-4(1H)-one]
[1]
  GI50: 148 nM
  K-562 TGI: >10000 nM
[2]
  IC50: 21 nM
[3]
  GI50: 33.3 nM
  THP-1 TGI: 83.9 nM
[4]
  GI50: 26.5 nM
  MV-4-11 TGI: 43.5 nM
[5]
  IC50: > 37000 nM
[6]
  IC50: 22 nM
[7]
  IC50: 16 nM

## Cc1cc(N2C(=O)c3nc(C)n(C(C)C)c3C2c2ccc(Cl)cc2)nn2c(C(F)F)nnc12 (centres unmarked) [Example 150, 6-(4-chlorophenyl)-5-(3-(difluoromethyl)-8-methyl-[1,2,4]triazolo[4,3-b]pyridazin-6-yl)-1-isopropyl-2-methyl-5,6-dihydropyrrolo[3,4-d]imidazol-4(1H)-one]
[1]
  GI50: 75.3 nM
  K-562 TGI: >10000 nM
[2]
  IC50: 39 nM
[3]
  GI50: 17.3 nM
  THP-1 TGI: 46.4 nM
[4]
  GI50: 9.63 nM
  MV-4-11 TGI: 24.2 nM
[5]
  IC50: > 37000 nM
[6]
  IC50: 94 nM
[7]
  IC50: 38 nM

## COc1ncccc1-c1nc2c(n1C(C)C)[C@@H](c1ccc(Cl)cc1)N(c1cc(C)c3nnc(C(F)F)n3c1)C2=O [Example 151, (R)-6-(4-chlorophenyl)-5-(3-(difluoromethyl)-8-methyl-[1,2,4]triazolo[4,3-a]pyridin-6-yl)-1-isopropyl-2-(2-methoxypyridin-3-yl)-5,6-dihydropyrrolo[3,4-d]imidazol-4(1H)-one]
[1]
  GI50: 24.1 nM
  K-562 TGI: >10000 nM
[2]
  IC50: 14 nM
[3]
  GI50: 6.85 nM
  THP-1 TGI: 17.45 nM
[4]
  GI50: 3.73 nM
  MV-4-11 TGI: 8.015 nM
[5]
  IC50: 13900 nM
[6]
  IC50: 14 nM
[7]
  IC50: 11 nM

## COc1ncccc1-c1nc2c([nH]1)[C@@H](c1ccc(Cl)cc1)N(c1cc(C)c3nnc(C(F)F)n3c1)C2=O [Example 153, (R)-6-(4-chlorophenyl)-5-(3-(difluoromethyl)-8-methyl-[1,2,4]triazolo[4,3-a]pyridin-6-yl)-2-(2-methoxypyridin-3-yl)-5,6-dihydropyrrolo[3,4-d]imidazol-4(1H)-one]
[1]
  GI50: 95 nM
  K-562 TGI: >10000 nM
[2]
  IC50: 23 nM
[3]
  GI50: 18.4 nM
  THP-1 TGI: 44.3 nM
[4]
  GI50: 25.6 nM
  MV-4-11 TGI: 38.6 nM
[5]
  IC50: 28900 nM
[6]
  IC50: 25 nM
[7]
  IC50: 13 nM

## COc1ccc(-c2nc3c(n2C(C)C)[C@@H](c2ccc(Cl)cc2)N(c2cc(C)c4nnn(C)c4n2)C3=O)cn1 [Example 154, (R)-6-(4-chlorophenyl)-5-(3,7-dimethyl-3H-[1,2,3]triazolo[4,5-b]pyridin-5-yl)-1-isopropyl-2-(6-methoxypyridin-3-yl)-5,6-dihydropyrrolo[3,4-d]imidazol-4(1H)-one]
[1]
  GI50: 21.4 nM
  K-562 TGI: >10000 nM
[2]
  IC50: 19 nM
[3]
  GI50: 4.68 nM
  THP-1 TGI: 12.2 nM
[4]
  GI50: 3.64 nM
  MV-4-11 TGI: 8.305 nM
[5]
  IC50: > 37000 nM
[6]
  IC50: 42 nM
[7]
  IC50: 19 nM

## COc1ncccc1-c1nc2c([nH]1)[C@@H](c1ccc(Cl)cc1)N(c1cc(C)c(=O)n(C)c1)C2=O [Example 156, (R)-6-(4-chlorophenyl)-5-(1,5-dimethyl-6-oxo-1,6-dihydropyridin-3-yl)-2-(2-methoxypyridin-3-yl)-5,6-dihydropyrrolo[3,4-d]imidazol-4(1H)-one]
[1]
  GI50: 122 nM
  K-562 TGI: >10000 nM
[2]
  IC50: 29.5 nM
[3]
  GI50: 43.4 nM
  THP-1 TGI: 99 nM
[4]
  GI50: 25.4 nM
  MV-4-11 TGI: 51.35 nM
[5]
  IC50: 260 nM
[6]
  IC50: 32 nM
[7]
  IC50: 25 nM

## COc1ncccc1-c1nc2c(n1C(C)C)[C@@H](c1ccc(Cl)cc1)N(c1cc(C)c3nnn(C)c3n1)C2=O [Example 158, (R)-6-(4-chlorophenyl)-5-(3,7-dimethyl-3H-[1,2,3]triazolo[4,5-b]pyridin-5-yl)-1-isopropyl-2-(2-methoxypyridin-3-yl)-5,6-dihydropyrrolo[3,4-d]imidazol-4(1H)-one]
[1]
  GI50: 8.73 nM
  K-562 TGI: >10000 nM
[2]
  IC50: < 11 nM
[3]
  GI50: 2 nM
  THP-1 TGI: 5.065 nM
[4]
  GI50: 1.64 nM
  MV-4-11 TGI: 3.29 nM
[5]
  IC50: > 37000 nM
[6]
  IC50: 16 nM
[7]
  IC50: < 11 nM
